From ChEMBL document CHEMBL1128135, “Synthesis and biological evaluation of new arylthiophene analogs of DuP 753” (Bioorg Med Chem Lett, 1995)

Species: Oryctolagus cuniculus
Test: In vitro antagonist activity was determined by the ability to antagonize the contractile response to angiotensin II in the isolated rabbit aortic strips
Assay type: functional
Conditions: Aorta

IC50 [µM] | Compound
4.16 | CCCCc1nc(Cl)c(CO)n1Cc1ccc(-c2ccccc2C(=O)O)s1
0.328 | CCCCc1nc(Cl)c(CO)n1Cc1ccc(-c2ccccc2-c2nn[nH]n2)s1
0.12 | CCCCc1nc(Cl)c(CO)n1Cc1ccc(-c2ccccc2C(=O)O)cc1
2 | CCCCc1nc(Cl)c(C=O)n1Cc1ccc(-c2ccccc2C(=O)O)s1
0.33 | CCCCc1nc(Cl)c(C=O)n1Cc1ccc(-c2ccccc2-c2nn[nH]n2)s1
0.0061 | CCCCc1nc(Cl)c(CO)n1Cc1ccc(-c2ccccc2-c2nnn[nH]2)cc1 [LOSARTAN]
